Assays:
[1] = tested on: bicistronic genotype 1b replicon in Huh 7.5 cells; test: HCV replicon assay, genotype 1b (Huh7.5 Con1/SG-Neo(I)hRluc2aUb cell line, Renilla luciferase readout); format: cell-based; settings: Hepatitis C virus, Huh7.5, 72 h, read-out: Gt1b IC50
Excerpt: (§1) Anti-viral activity of the compounds of the invention was monitored using an HCV replicon assay. The Huh7.5 Con1/SG-Neo(I)hRluc2aUb cell line persistently expressing a bicistronic genotype 1b replicon in Huh 7.5 cells and the Huh7.5/J6/JFH1/EMCVIRES/hRlucNeo cell line expressing a bicistronic genotype 2a replicon in Huh 7.5 cells were obtained from Apath LLC. These cell lines were used to test inhibition of replicon levels by test compound using Renilla luciferase enzyme activity readout as a measure of viral replication efficiency.
(§2) Briefly, 7000-7500 cells were seeded in 96 well black clear bottom plates and allowed to adhere overnight. The next day each compound was added in triplicate to the cells at the desired concentration with a final DMSO concentration of 0.5%. Cells in media alone and cells incubated without drug with 0.5% DMSO served as controls. The plates were incubated for 72h at 37° C. prior to running the luciferase assay. Enzyme activity was measured using Renilla-Glo Luciferase Assay kit from Promega as per the manufacturer's instructions. The following equation was used to generate the percent inhibition value for each test concentration.
(§3) The IC50 value was determined using GraphPad Prism and the following equation: Y=Bottom+(Top−Bottom)(1+10^((Log IC50−X)*Hill slope))
(§4) IC50/values % inhibitions of compounds were determined 2-3 times in the replicon assays.

[2] = tested on: bicistronic genotype 2a replicon in Huh 7.5 cells; test: HCV replicon assay, genotype 2a (Huh7.5/J6/JFH1/EMCVIRES/hRlucNeo cell line, Renilla luciferase readout); format: cell-based; settings: Hepatitis C virus, Huh7.5, 72 h, read-out: Gt2a IC50
Excerpt: as §1, §2, §3, §4

For `COC(=O)N[C@H](C(=O)N1C(c2ncc(-c3ccc4c(ccc5cc(-c6cnc(C7[C@H]8CC[C@H](C8)N7C(=O)[C@@H](NC(=O)OC)C(C)C)[nH]6)sc54)c3)[nH]2)[C@H]2CC[C@@H]1C2)C(C)C` (stereo partly drawn) [Compound 10, dimethyl((2S,2′S)-((1R,1′R,3S,3′S,4S,4′S)-3,3′-(5,5′-(naphtho[1,2-b]thiophene-2,7-diyl)bis(1H-imidazole-5,2-diyl))bis(2-azabicyclo[2.2.1]heptane-3,2-diyl))bis(3-methyl-1-oxobutane-2,1-diyl))dicarbamate], the IC50 [1] was 0.001 to 0.999 nM and the IC50 [2] was 0.001 to 0.999 nM.

`COC(=O)N[C@H](C(=O)N1CCC[C@H]1c1ncc(-c2ccc3c(ccc4cc(-c5cnc([C@@H]6CCCN6C(=O)[C@@H](NC(=O)OC)C(C)C)[nH]5)sc43)c2)[nH]1)C(C)C` [Compound 7, dimethyl((2S,2′S)-((2S,2′S)-2,2′-(5,5′-(naphtho[1,2-b]thiophene-2,7-diyl)bis(1H-imidazole-5,2-diyl))bis(pyrrolidine-2,1-diyl))bis(3-methyl-1-oxobutane-2,1-diyl))dicarbamate] showed an IC50 [1] of 0.001 to 0.999 nM and an IC50 [2] of 0.001 to 0.999 nM.

With `COC(=O)N[C@H](C(=O)N1CCC[C@H]1c1nc(Cl)c(-c2ccc3c(c2)OCCc2cc(-c4[nH]c([C@@H]5CCCN5C(=O)[C@@H](NC(=O)OC)C(C)C)nc4Cl)sc2-3)[nH]1)C(C)C` [Compound 3, dimethyl((2S,2′S)-((2S,2′S)-2,2′-(5,5′-(4,5-dihydrobenzo[b]thieno[2,3-d]oxepine-2,8-diyl)bis(4-chloro-1H-imidazole-5,2-diyl))bis(pyrrolidine-2,1-diyl))bis(3-methyl-1-oxobutane-2,1-diyl))dicarbamate] the IC50 [1] was 0.001 to 0.999 nM and the IC50 [2] was 1 to 100 nM.

`COC(=O)N[C@H](C(=O)N1CCC[C@H]1c1nc(Cl)c(-c2ccc3c(c2)CCCc2cc(-c4[nH]c([C@@H]5CCCN5C(=O)[C@@H](NC(=O)OC)C(C)C)nc4Cl)sc2-3)[nH]1)C(C)C` [Compound 9, dimethyl((2S,2′S)-((2S,2′S)-2,2′-(5,5′-(5,6-dihydro-4H-benzo[6,7]cyclohepta[1,2-b]thiophene-2,8-diyl)bis(4-chloro-1H-imidazole-5,2-diyl))bis(pyrrolidine-2,1-diyl))bis(3-methyl-1-oxobutane-2,1-diyl))dicarbamate] gave an IC50 [1] of 0.001 to 0.999 nM and an IC50 [2] of 0.001 to 0.999 nM.

`COC(=O)N[C@H](C(=O)N1CCC[C@H]1c1ncc(-c2ccc3c(c2)CCCc2cc(-c4cnc([C@@H]5CCCN5C(=O)[C@@H](NC(=O)OC)C(C)C)[nH]4)sc2-3)[nH]1)C(C)C` [Compound 8, dimethyl((2S,2′S)-((2S,2′S)-2,2′-(5,5′-(5,6-dihydro-4H-benzo[6,7]cyclohepta[1,2-b]thiophene-2,8-diyl)bis(1H-imidazole-5,2-diyl))bis(pyrrolidine-2,1-diyl))bis(3-methyl-1-oxobutane-2,1-diyl))dicarbamate] gave an IC50 [1] of 0.001 to 0.999 nM and an IC50 [2] of 0.001 to 0.999 nM.

`COC(=O)N[C@H](C(=O)N1CCC[C@H]1c1ncc(-c2ccc3c(c2)OCc2cc(-c4cnc([C@@H]5CCCN5C(=O)[C@@H](NC(=O)OC)C(C)C)[nH]4)sc2-3)[nH]1)C(C)C` [Compound 1, dimethyl((2S,2′S)-((2S,2′S)-2,2′-(5,5′-(4H-thieno[3,2-c]chromene-2,7-diyl)bis(1H-imidazole-5,2-diyl))bis(pyrrolidine-2,1-diyl))bis(3-methyl-1-oxobutane-2,1-diyl))dicarbamate] gave an IC50 [1] of 0.001 to 0.999 nM and an IC50 [2] of 0.001 to 0.999 nM.

`COC(=O)N[C@H](C(=O)N1CCC[C@H]1c1ncc(-c2ccc3c(ccc4cc(-c5cnc([C@@H]6[C@H]7CC[C@H](C7)N6C(=O)[C@@H](NC(=O)OC)C(C)C)[nH]5)sc43)c2)[nH]1)C(C)C` [Compound 11, methyl((S)-1-((S)-2-(5-(2-(2-((1R,3S,4S)-2-((S)-2-(methoxycarbonyl)amino-3-methylbutanoyl)-2-azabicyclo[2.2.1]heptan-3-yl)-1H-imidazol-5-yl)naphtho[1,2-b]thiophen-7-yl)-1H-imidazol-2-yl)pyrrolidin-1-yl)-3-methyl-1-oxobutan-2-yl)carbamate] gave an IC50 [1] of 0.001 to 0.999 nM and an IC50 [2] of 0.001 to 0.999 nM.

For `COC(=O)N[C@H](C(=O)N1CCC[C@H]1c1ncc(-c2ccc3c(c2)CCc2cc(-c4cnc([C@@H]5CCCN5C(=O)[C@@H](NC(=O)OC)C(C)C)[nH]4)sc2-3)[nH]1)C(C)C` [Compound 5, dimethyl((2S,2′S)-((2S,2′S)-2,2′-(5,5′-(4,5-dihydronaphtho[1,2-b]thiophene-2,7-diyl)bis(1H-imidazole-5,2-diyl))bis(pyrrolidine-2,1-diyl))bis(3-methyl-1-oxobutane-2,1-diyl))dicarbamate], the IC50 [1] was 0.001 to 0.999 nM and the IC50 [2] was 0.001 to 0.999 nM.

For `COC(=O)N[C@H](C(=O)N1CCC[C@H]1c1ncc(-c2ccc3c(c2)OCCc2cc(-c4cnc([C@@H]5CCCN5C(=O)[C@@H](NC(=O)OC)C(C)C)[nH]4)sc2-3)[nH]1)C(C)C` [Compound 2, dimethyl((2S,2′S)-((2S,2′S)-2,2′-(5,5′-(4,5-dihydrobenzo[b]thieno[2,3-d]oxepine-2,8-diyl)bis(1H-imidazole-5,2-diyl))bis(pyrrolidine-2,1-diyl))bis(3-methyl-1-oxobutane-2,1-diyl))dicarbamate], the IC50 [1] was 0.001 to 0.999 nM and the IC50 [2] was 1 to 100 nM.

Work on `COC(=O)N[C@H](C(=O)N1CCC[C@H]1c1nc(Cl)c(-c2ccc3c(c2)CCc2c-3sc(-c3[nH]c([C@@H]4CCCN4C(=O)[C@@H](NC(=O)OC)C(C)C)nc3Cl)c2Cl)[nH]1)C(C)C` [Compound 6, dimethyl((2S,2′S)-((2S,2′S)-2,2′-(5,5′-(3-chloro-4,5-dihydronaphtho[1,2-b]thiophene-2,7-diyl)bis(4-chloro-1H-imidazole-5,2-diyl))bis(pyrrolidine-2,1-diyl))bis(3-methyl-1-oxobutane-2,1-diyl))dicarbamate] yielded an IC50 [1] of 0.001 to 0.999 nM and an IC50 [2] of 0.001 to 0.999 nM.

For `COC(=O)N[C@H](C(=O)N1CCC[C@H]1c1ncc(-c2ccc3c(ccc4sc(-c5cnc([C@@H]6CCCN6C(=O)[C@@H](NC(=O)OC)C(C)C)[nH]5)nc43)c2)[nH]1)C(C)C` [Compound 4, dimethyl((2S,2′S)-((2S,2′S)-2,2′-(5,5′-(naphtho[1,2-d]thiazole-2,7-diyl)bis(1H-imidazole-5,2-diyl))bis(pyrrolidine-2,1-diyl))bis(3-methyl-1-oxobutane-2,1-diyl))dicarbamate], the IC50 [1] was 0.001 to 0.999 nM and the IC50 [2] was over 100 nM.

Reference: patent US9073942B2, “Antiviral compounds with a heterotricycle moiety” (Lupin Limited, priority 2012, dated 2015)
